Test results as given in patent publication US11524006B2, “Crenolanib for treating TRK kinase associated proliferative disorders” (Arog Pharmaceuticals, Inc., priority 2020, dated 2022).

What was measured:
[1] = test system: TRK fusion positive cancers; details: cited from earlier work
TRKA-G667C = target: T1, TRKA-G667C (Homo sapiens, UniProt P04629, G667C); assay: Reaction Biology HotSpot Kinase assay, direct enzyme phosphorylation; format: biochemical; details: xDFG Mutant TRKA-G667C
T1 construct: purchased Reaction Biology (HotSpot Kinase assay panel)
Procedure: (§1) Direct enzyme phosphorylation assay. The Reaction Biology HotSpot Kinase assay was used to screen the present invention against a panel of normal TRKA, TRKB, and TRKC and mutated TRK kinases. For assays of all kinases, the TRK enzyme was prepared in base reaction buffer (20 mM Hepes (pH 7.5), 10 mM MgCl2, 1 mM EGTA, 0.02% Brij35, 0.02 mg/ml BSA, 0.1 mM Na3VO4, 2 mM DTT, 1% DMSO). The reaction was initiated by the addition of 33P-ATP (10 μCi/μL) into the mixture. The reaction mixture was incubated for 120 minutes at room temperature. Radioactivity was detected by filter-binding method, and kinase activity expressed as the percent remaining kinase activity in test samples compared to vehicle reactions. IC50 values and curve fitting were obtained using Prism (GraphPad Software).
(§2) The activity of the besylate salt of the present invention was determined using a direct enzymatic Reaction Biology HotSpot Kinase assay. All IC50 values are presented in nanomolar concentration. In the direct enzymatic measurement assay, the IC50 of the besylate salt of the current invention against the various TRK kinases is shown in Table 1.

TRKA-L657M = target: T2, TRKA-L657M (Homo sapiens, UniProt P04629, L657M); assay: as above; format: biochemical; details: Other Mutant TRKA-L657M
T2 construct: purchased Reaction Biology (HotSpot Kinase assay panel)
Procedure: as §1, §2

TRKA-G667S = target: T3, TRKA-G667S (Homo sapiens, UniProt P04629, G667S); assay: as above; format: biochemical; details: xDFG Mutant TRKA-G667S
T3 construct: purchased Reaction Biology (HotSpot Kinase assay panel)
Procedure: as §1, §2

TRKA-A608D = target: T4, TRKA-A608D (Homo sapiens, UniProt P04629, A608D); assay: as above; format: biochemical; details: Other Mutant TRKA-A608D
T4 construct: purchased Reaction Biology (HotSpot Kinase assay panel)
Procedure: as §1, §2

TRKA-TFG = target: T5, TRKA-TFG (Homo sapiens, UniProt P04629); assay: as above; format: biochemical; details: Fusion TRKA-TFG
T5 construct: partner gene encoding one or more dimerization domains with the tyrosine kinase domains of one of the TRK genes; TFG (fusion partner); purchased Reaction Biology (HotSpot Kinase assay panel); the other entry of the earlier key: TFG (Q92734, Protein TFG)
Procedure: as §1, §2

TRKA-TPM3 = target: T6, TRKA-TPM3 (Homo sapiens, UniProt P04629); assay: as above; format: biochemical; details: Fusion TRKA-TPM3
T6 construct: fused on or other part: N-terminal part of tropomyosin 3 (coiled-coil dimerisation part); P06753 (Tropomyosin alpha-3 chain)
Procedure: as §1, §2

TRKC-L686M = target: T7, TRKC-L686M (Homo sapiens, UniProt Q16288, L686M); assay: as above; format: biochemical; details: Other Mutant TRKC-L686M
T7 construct: purchased Reaction Biology (HotSpot Kinase assay panel)
Procedure: as §1, §2

TRKC-G696A = target: T8, TRKC-G696A (Homo sapiens, UniProt Q16288, G696A); assay: as above; format: biochemical; details: xDFG Mutant TRKC-G696A
T8 construct: purchased Reaction Biology (HotSpot Kinase assay panel)
Procedure: as §1, §2

TRKA-TPR = target: T9, TRKA-TPR (Homo sapiens, UniProt P04629); assay: as above; format: biochemical; details: Fusion TRKA-TPR
T9 construct: fused on or other part: N-terminal coiled-coil part of TPR (translocated promoter region protein); P12270 (Nucleoprotein TPR)
Procedure: as §1, §2

T2 sequence (P04629 33-796 L657M): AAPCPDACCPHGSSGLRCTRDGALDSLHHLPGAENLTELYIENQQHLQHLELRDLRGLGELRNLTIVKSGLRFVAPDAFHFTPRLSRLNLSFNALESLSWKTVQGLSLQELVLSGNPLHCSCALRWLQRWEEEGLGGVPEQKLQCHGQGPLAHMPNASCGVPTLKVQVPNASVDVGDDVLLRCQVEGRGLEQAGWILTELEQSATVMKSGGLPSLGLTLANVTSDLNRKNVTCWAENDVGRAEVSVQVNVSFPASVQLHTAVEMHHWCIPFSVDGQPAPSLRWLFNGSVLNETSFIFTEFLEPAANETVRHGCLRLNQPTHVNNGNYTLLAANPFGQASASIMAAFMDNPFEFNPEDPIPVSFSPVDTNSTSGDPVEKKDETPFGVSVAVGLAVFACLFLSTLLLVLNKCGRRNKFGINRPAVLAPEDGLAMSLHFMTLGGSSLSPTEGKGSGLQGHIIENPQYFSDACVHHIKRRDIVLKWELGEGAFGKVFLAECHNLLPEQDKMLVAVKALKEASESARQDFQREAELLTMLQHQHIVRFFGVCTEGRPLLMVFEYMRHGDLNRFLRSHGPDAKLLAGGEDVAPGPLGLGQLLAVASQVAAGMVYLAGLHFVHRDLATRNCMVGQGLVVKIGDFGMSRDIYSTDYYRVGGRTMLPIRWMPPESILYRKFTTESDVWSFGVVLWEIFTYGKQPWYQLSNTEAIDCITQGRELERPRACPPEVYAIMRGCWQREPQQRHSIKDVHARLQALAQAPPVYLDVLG
T6 sequence (P04629 510-796 limits assumed): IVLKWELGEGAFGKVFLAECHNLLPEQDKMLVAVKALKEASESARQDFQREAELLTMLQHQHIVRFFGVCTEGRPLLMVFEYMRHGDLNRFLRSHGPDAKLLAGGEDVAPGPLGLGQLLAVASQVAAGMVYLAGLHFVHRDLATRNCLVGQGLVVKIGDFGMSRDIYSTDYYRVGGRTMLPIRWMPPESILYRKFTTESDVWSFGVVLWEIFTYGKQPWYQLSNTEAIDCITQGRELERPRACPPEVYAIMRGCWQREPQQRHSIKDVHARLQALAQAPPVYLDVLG
T9 sequence (P04629 510-796 limits assumed): as above
T5 sequence (P04629 with tags, fused parts or gaps): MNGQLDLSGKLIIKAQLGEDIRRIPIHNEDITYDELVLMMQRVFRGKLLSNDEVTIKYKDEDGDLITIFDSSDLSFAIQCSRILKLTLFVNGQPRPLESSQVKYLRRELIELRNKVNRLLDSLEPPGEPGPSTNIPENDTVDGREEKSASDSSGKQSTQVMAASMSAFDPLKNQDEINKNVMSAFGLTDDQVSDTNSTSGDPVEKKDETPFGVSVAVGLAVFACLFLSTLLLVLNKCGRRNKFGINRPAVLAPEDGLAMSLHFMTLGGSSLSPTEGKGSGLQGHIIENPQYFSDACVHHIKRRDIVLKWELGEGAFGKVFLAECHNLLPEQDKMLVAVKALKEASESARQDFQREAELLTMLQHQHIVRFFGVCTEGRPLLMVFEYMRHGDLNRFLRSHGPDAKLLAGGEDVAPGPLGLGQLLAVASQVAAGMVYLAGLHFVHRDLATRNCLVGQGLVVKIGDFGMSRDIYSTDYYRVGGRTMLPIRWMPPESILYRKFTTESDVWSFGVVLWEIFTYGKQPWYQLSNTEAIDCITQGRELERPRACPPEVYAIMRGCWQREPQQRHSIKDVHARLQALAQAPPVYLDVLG
T8 sequence (Q16288 32-839 G696A): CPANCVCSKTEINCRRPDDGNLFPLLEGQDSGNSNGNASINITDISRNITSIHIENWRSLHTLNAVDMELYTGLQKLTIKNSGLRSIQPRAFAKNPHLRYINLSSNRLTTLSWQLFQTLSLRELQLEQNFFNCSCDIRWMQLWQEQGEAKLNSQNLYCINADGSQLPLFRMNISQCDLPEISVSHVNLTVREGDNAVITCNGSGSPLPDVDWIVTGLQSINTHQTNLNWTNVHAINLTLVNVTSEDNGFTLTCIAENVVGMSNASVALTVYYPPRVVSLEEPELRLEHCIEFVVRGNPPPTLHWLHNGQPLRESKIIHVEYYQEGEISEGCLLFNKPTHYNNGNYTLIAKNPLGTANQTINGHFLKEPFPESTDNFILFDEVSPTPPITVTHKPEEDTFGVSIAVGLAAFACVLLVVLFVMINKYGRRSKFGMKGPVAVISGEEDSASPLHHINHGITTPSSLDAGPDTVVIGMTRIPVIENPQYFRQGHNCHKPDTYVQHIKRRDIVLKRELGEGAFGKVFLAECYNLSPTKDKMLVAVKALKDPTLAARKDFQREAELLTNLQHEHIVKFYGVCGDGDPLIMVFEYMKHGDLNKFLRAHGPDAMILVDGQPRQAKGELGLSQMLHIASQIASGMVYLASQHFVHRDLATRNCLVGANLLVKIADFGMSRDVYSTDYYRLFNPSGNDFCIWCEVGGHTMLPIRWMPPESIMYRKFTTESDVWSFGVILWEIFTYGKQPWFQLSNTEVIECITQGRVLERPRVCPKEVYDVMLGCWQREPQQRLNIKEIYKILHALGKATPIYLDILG
T7 sequence (Q16288 32-839 L686M): as the sequence (Q16288 32-839 G696A) above, with L655M, A665G counted along it
T1 sequence (P04629 33-796 G667C): as the sequence (P04629 33-796 L657M) above, with M625L, G635C counted along it
T3 sequence (P04629 33-796 G667S): as the sequence (P04629 33-796 L657M) above, with M625L, G635S counted along it
T4 sequence (P04629 33-796 A608D): as the sequence (P04629 33-796 L657M) above, with A576D, M625L counted along it

Row | IC50 (TRKA-G667C) | IC50 (TRKA-L657M) | IC50 (TRKA-G667S) | IC50 (TRKA-A608D) | IC50 (TRKA-TFG) | IC50 (TRKA-TPM3) | IC50 (TRKC-L686M) | IC50 (TRKC-G696A) | IC50 (TRKA-TPR) | Structure (SMILES) | clinical response in assessed patients ([1]; assessed patients) | patients progressed within 1 year ([1]; within 1 year)
1 |  |  |  |  |  |  |  |  |  | O=C(Nc1cnn2ccc(N3CCC[C@@H]3c3cc(F)ccc3F)nc12)N1CC[C@H](O)C1 [Larotrectinib] | 75% | 45%
2 | 5 nM | 79.7 nM | 4.52 nM | 38.7 nM | 3.95 nM | 4.34 nM | 184 nM | 5.69 nM | 3.98 nM | CC1(COc2ccc3c(c2)ncn3-c2ccc3cccc(N4CCC(N)CC4)c3n2)COC1 [crenolanib besylate, Crenolanib Besylate] |  | 
